Measured values reported in ChEMBL document CHEMBL1201862, “PubChem BioAssay data set” (2004).
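Exposure lasted 48 hours, with cells grown in 96-well plates and compounds tested at five concentrations. GI50 = concentration required for 50% inhibition of growth.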 Active and inactive are the calls of the source. Cut-off read from the data, not from the text of the source: active = GI50 up to about 1.1 µM and inactive = higher.

Assays:
Assay in all cases: NCI-60 cell line screen, 48 h
HOP-62 = tested on: HOP-62
OVCAR-3 = tested on: OVCAR-3
UACC-257 = tested on: UACC-257
Malme-3M = tested on: Malme-3M
SF-268 = tested on: SF-268
SNB-19 = tested on: SNB-19
K562 = tested on: K562
RPMI-8226 = tested on: RPMI-8226
OVCAR-4 = tested on: OVCAR-4
HCT-116 = tested on: HCT-116
CCRF-CEM = tested on: CCRF-CEM
UACC-62 = tested on: UACC-62
OVCAR-5 = tested on: OVCAR-5
HOP-92 = tested on: HOP-92
SK-MEL-2 = tested on: SK-MEL-2
TK-10 = tested on: TK-10
SNB-75 = tested on: SNB-75
M14 = tested on: M14
SK-MEL-5 = tested on: SK-MEL-5

Row | Compound | GI50 (HOP-62) | GI50 (OVCAR-3) | GI50 (UACC-257) | GI50 (Malme-3M) | GI50 (SF-268) | GI50 (SNB-19) | GI50 (K562) | GI50 (RPMI-8226) | GI50 (OVCAR-4) | GI50 (HCT-116) | GI50 (CCRF-CEM) | GI50 (UACC-62) | GI50 (OVCAR-5) | GI50 (HOP-92) | GI50 (SK-MEL-2) | GI50 (TK-10) | GI50 (SNB-75) | GI50 (M14) | GI50 (SK-MEL-5)
1 | Cc1ccc(NC(=O)C(=O)C(C(=O)c2ccc3ccccc3c2)C2OC(=O)c3ccccc32)c(C)c1 (centres undefined) | 6.12 µM (inactive) | 9.38 µM (inactive) | 12.8 µM (inactive) | 8.99 µM (inactive) | 3.68 µM (inactive) | 4.37 µM (inactive) | 10.4 µM (inactive) | 5.87 µM (inactive) | 6.76 µM (inactive) | 6.35 µM (inactive) | 8.55 µM (inactive) | 4.54 µM (inactive) | 16.3 µM (inactive) | 7.03 µM (inactive) | 13 µM (inactive) | 20.3 µM (inactive) | 9.14 µM (inactive) | 14.7 µM (inactive) | 11.1 µM (inactive)
2 | O=Cc1c(O)c(C(=O)Nc2ccc3[nH]c(=O)[nH]c3c2)cc2ccccc12 | > 100 µM (inactive) | > 100 µM (inactive) | > 100 µM (inactive) | > 100 µM (inactive) | > 100 µM (inactive) | > 100 µM (inactive) | > 100 µM (inactive) | > 100 µM (inactive) | > 100 µM (inactive) | > 100 µM (inactive) | > 100 µM (inactive) | > 100 µM (inactive) | > 100 µM (inactive) | > 100 µM (inactive) | > 100 µM (inactive) | > 100 µM (inactive) | > 100 µM (inactive) | > 100 µM (inactive) | > 100 µM (inactive)
3 | O=C(CSC(=S)N1CCCCC1)Nc1nc2c(s1)CCCC2 | 91.4 µM (inactive) |  | 23.3 µM (inactive) | > 100 µM (inactive) | 20.7 µM (inactive) | 71.1 µM (inactive) |  | 33.5 µM (inactive) | 91.8 µM (inactive) | 12.1 µM (inactive) | 29.4 µM (inactive) |  | > 100 µM (inactive) | 39.1 µM (inactive) | > 100 µM (inactive) | 16.4 µM (inactive) | > 100 µM (inactive) | 66.5 µM (inactive) | 18.5 µM (inactive)
4 | COc1ccc(-c2oc(/C=N/NC(N)=S)c([N+](=O)[O-])c2-c2ccc(OC)c(OC)c2)cc1OC | 28 µM (inactive) | 16.7 µM (inactive) | 31.8 µM (inactive) | 17.3 µM (inactive) | 16.6 µM (inactive) | 36.1 µM (inactive) | > 10 µM (inactive) | 17 µM (inactive) | 21.7 µM (inactive) | 19.2 µM (inactive) | > 10 µM (inactive) | 20.1 µM (inactive) | 48.3 µM (inactive) | 24.2 µM (inactive) | 15.3 µM (inactive) | 34 µM (inactive) | 18 µM (inactive) | 20.7 µM (inactive) | 
5 | N=C(N)N/N=C/c1oc(-c2ccc(S(=O)(=O)O)o2)c(-c2ccc(S(=O)(=O)O)o2)c1[N+](=O)[O-] | > 100 µM (inactive) | > 100 µM (inactive) | > 100 µM (inactive) | > 100 µM (inactive) | > 100 µM (inactive) | > 100 µM (inactive) | > 100 µM (inactive) |  | > 100 µM (inactive) | > 100 µM (inactive) | > 100 µM (inactive) | > 100 µM (inactive) | > 100 µM (inactive) | > 100 µM (inactive) | > 100 µM (inactive) | > 100 µM (inactive) | > 100 µM (inactive) | > 100 µM (inactive) | > 100 µM (inactive)
6 | COc1ccc(OC)c(N(CN2C(=O)CCC2C(=O)O)C(C)=O)c1 (centres undefined) | > 100 µM (inactive) | > 100 µM (inactive) | > 100 µM (inactive) | > 100 µM (inactive) | > 100 µM (inactive) | > 100 µM (inactive) | > 100 µM (inactive) | > 100 µM (inactive) | > 100 µM (inactive) | > 100 µM (inactive) | > 100 µM (inactive) | > 100 µM (inactive) | > 100 µM (inactive) | > 100 µM (inactive) | > 100 µM (inactive) | > 100 µM (inactive) | > 100 µM (inactive) | > 100 µM (inactive) | > 100 µM (inactive)
7 | C/C(=C\CBr)CCC(Br)C(C)(C)Cl (centres undefined) | > 100 µM (inactive) |  | > 100 µM (inactive) | > 100 µM (inactive) | > 100 µM (inactive) |  | > 100 µM (inactive) | > 100 µM (inactive) | > 100 µM (inactive) | > 100 µM (inactive) |  | > 100 µM (inactive) | > 100 µM (inactive) | > 100 µM (inactive) | > 100 µM (inactive) | > 100 µM (inactive) | > 100 µM (inactive) | > 100 µM (inactive) | > 100 µM (inactive)
8 | Cc1cc(N(CCC#N)CCC#N)ccc1/C=C(\N=[N+]=[N-])C(=O)NC(=O)COc1ccccc1 | > 100 µM (inactive) | > 100 µM (inactive) | > 100 µM (inactive) | > 100 µM (inactive) | > 100 µM (inactive) | > 76.6 µM (inactive) | > 100 µM (inactive) | > 100 µM (inactive) | > 100 µM (inactive) | > 100 µM (inactive) | > 100 µM (inactive) | > 100 µM (inactive) | > 100 µM (inactive) | > 100 µM (inactive) | > 73.3 µM (inactive) | > 100 µM (inactive) | > 44 µM (inactive) | > 100 µM (inactive) | > 100 µM (inactive)
9 | COc1cccc(/C=N\NC(=O)C(C)SC(C)C(=O)N/N=C/c2cccc(OC)c2)c1 (centres undefined) | 16 µM (inactive) | 20.7 µM (inactive) | 59.3 µM (inactive) | 42 µM (inactive) | 33.4 µM (inactive) | 20.8 µM (inactive) | > 78.3 µM (inactive) | 32.7 µM (inactive) | 16.8 µM (inactive) | 18.4 µM (inactive) | 31.9 µM (inactive) | > 54.2 µM (inactive) | 53.8 µM (inactive) | 20.8 µM (inactive) | 39.2 µM (inactive) | 19.1 µM (inactive) | 16.9 µM (inactive) | 72.9 µM (inactive) | 56.1 µM (inactive)
10 | [O-][N+]1=C(c2ccccc2)/C(=C2/C(c3ccccc3)=[N+]([O-])c3ccccc32)Cc2ccccc21 | 32.4 µM (inactive) | 16.8 µM (inactive) | 18.3 µM (inactive) | 21.3 µM (inactive) |  | 19 µM (inactive) | 19.1 µM (inactive) | 21.1 µM (inactive) | 13.8 µM (inactive) | 17.1 µM (inactive) | 13.1 µM (inactive) | 14.1 µM (inactive) | 33.6 µM (inactive) | 15.2 µM (inactive) | 16.1 µM (inactive) | 18.2 µM (inactive) | 15.5 µM (inactive) | 19.6 µM (inactive) | 17.6 µM (inactive)
11 | COc1ccc(C(c2c(O)c3ccccc3n(C)c2=O)c2c(O)c3ccccc3n(C)c2=O)cc1 |  | 33 µM (inactive) | 19.5 µM (inactive) | 47.2 µM (inactive) | 34.1 µM (inactive) | 39.5 µM (inactive) | 27.9 µM (inactive) | 46 µM (inactive) | 62.8 µM (inactive) | 36 µM (inactive) |  | 13.2 µM (inactive) | 32.3 µM (inactive) | 22.6 µM (inactive) | > 100 µM (inactive) | 38.2 µM (inactive) | 16.1 µM (inactive) | 34.9 µM (inactive) | 20.2 µM (inactive)
12 | CNC(=O)OCc1cc2ccncc2c2c1[nH]c1ccccc12 | 10 µM (inactive) | > 100 µM (inactive) | > 100 µM (inactive) | > 100 µM (inactive) |  | > 53.7 µM (inactive) | 17.9 µM (inactive) | > 88.3 µM (inactive) | > 100 µM (inactive) | 5.16 µM (inactive) | 7.4 µM (inactive) | > 100 µM (inactive) | > 77.6 µM (inactive) | > 100 µM (inactive) | > 100 µM (inactive) | > 100 µM (inactive) | > 40.4 µM (inactive) | > 100 µM (inactive) | > 100 µM (inactive)
13 | CC(C)c1c(O[Si](C(C)C)(C(C)C)C(C)C)cc2c(c1O)CC[C@H]1C(C)(C)CCC[C@]21C | > 100 µM (inactive) | > 100 µM (inactive) | > 100 µM (inactive) | > 100 µM (inactive) | > 100 µM (inactive) | > 100 µM (inactive) | 65.6 µM (inactive) | 45.7 µM (inactive) | > 100 µM (inactive) | > 100 µM (inactive) | 49.5 µM (inactive) | > 100 µM (inactive) | > 100 µM (inactive) | > 100 µM (inactive) | > 100 µM (inactive) | 6.12 µM (inactive) | 50.6 µM (inactive) | > 100 µM (inactive) | > 100 µM (inactive)
14 | CC(C)(C)OC(=O)NC1CCC[C@H]1O (some centres undefined) | > 100 µM (inactive) | > 100 µM (inactive) | > 100 µM (inactive) | 0.265 µM (active) | > 100 µM (inactive) | > 100 µM (inactive) | > 100 µM (inactive) |  | > 100 µM (inactive) | > 100 µM (inactive) | > 100 µM (inactive) | > 100 µM (inactive) | > 100 µM (inactive) | > 100 µM (inactive) | > 100 µM (inactive) | > 100 µM (inactive) | 47.3 µM (inactive) | > 100 µM (inactive) | > 100 µM (inactive)
15 | COc1ccc(/N=c2/[nH]c(N)c(C(=O)c3ccc(OC)cc3)s2)cc1 |  | 0.255 µM (active) | > 100 µM (inactive) |  | 12.9 µM (inactive) | 0.474 µM (active) | 0.0492 µM (active) | 0.164 µM (active) | 0.755 µM (active) | 0.365 µM (active) | 0.183 µM (active) | 0.481 µM (active) | 15.3 µM (inactive) | 25.1 µM (inactive) | 0.288 µM (active) | 15.1 µM (inactive) | 0.31 µM (active) |  | 0.381 µM (active)
